# Test results taken from US20200069775A1, “BRAIN OSTEOCALCIN RECEPTOR AND COGNITIVE DISORDERS” (The Trustees of Columbia University in the City of New York, priority 2017, published 2020).
# Test system: 12 and 16 month-old WT mice
# Assay: Peripheral osteocalcin delivery by mini-pumps in aging WT mice, DLT, EPMT, MWMT, NOR
# Assay type: in vivo, mouse
# Conditions: 30 or 90 ng/h peripherally via mini-pumps for 60 days
# Protocol: For plasma injection experiments, 100 μl of plasma were injected 8 times during 24 days, via tail vein. Each group described is represented individually in each panel. For osteocalcin delivery in WT mice, pumps (Alzet micro-osmotic pump, Model 1002) delivering osteocalcin (30 ng/hr for 12 month-old and 90 ng/hr for 16 month-old mice), or vehicle, were surgically installed subcutaneously in the back of mice. For alendronate delivery to 3 month-old mice, intraperitoneal injections (40 μg/kg) were performed twice a week for 6 weeks. During the last 4 weeks of treatment and during behavioral testing, half of the alendronate-treated mice received 60 ng/hr osteocalcin by osmotic pump. […]
# Elevated plus maze test (EPMT): This test takes advantage of the aversion of rodents to open spaces. […] The total number of arm entries and time spent in open arms is recorded. […]
# Light to dark transition test: This test is based on the innate aversion of rodents to brightly illuminated areas and on their spontaneous exploratory behavior in response to the stressor that light represents. […] Mice were tested for 6 min and […] were recorded: (i) latency to enter the lit compartment, (ii) time spent in this compartment, an index of the anxiety-related behavior and (iii) number of transitions between compartments, an index of anxiety-related behavior as well as exploratory activity. […]
substance,measurement,setting,value
"osteocalcin: Recombinant osteocalcin bacterially produced, cleaved from the GST subunit; completely undercarboxylated at all three sites; full-length mouse osteocalcin (YLGASVPSPDPLEPTREQCELNPACDELSDQYGLKTAYKRIYGITI)",memory (MWMT and NOR),12- and 16-month-old WT mice,memory was significantly improved
same,exploratory and anxiety-like behavior (DLT or EPMT),12 and 16 month-old WT mice,better exploratory behavior and decreased anxiety-like behavior
